Assay results from PubChem BioAssay AID2253 (Southern Research Specialized Biocontainment Screening …, 2010).
Several values for one entry are separate records, joined by “and”; a condition that tells them apart may be missing. Equal values may be shown once.

Tested on: THP-1 viability, CellTiter-Glo luminescence, 72 h
Test: human monocytic cell viability reduction – S. typhimurium screen hits, cytotoxicity control for Salmonella PhoP regulon inhibitors, dose response (AID 2253)

Structure (SMILES)	EC50
c1ccc(Nc2cc(Nc3ccccc3)[nH]n2)cc1	23.7 µM
O=C(Nc1nc2cc3c(cc2s1)OCO3)C1=COCCO1	6.67 µM
COc1ccc(C(=O)N2CCc3cc(OC)c(OC)cc3C2)cc1OC	36.7 µM
COc1cccc(/C=N/Nc2ncc(C(F)(F)F)cc2Cl)c1O	0.97 µM
CCCCCCCCCCCCCCCC[n+]1cccc2ccccc21	0.27 µM
N=c1n(CCO)c2ccccc2n1Cc1ccc(Cl)cc1	41.1 µM
CN1c2ccccc2C(C)(C)[C@]12C=Cc1cc(O)ccc1O2	15.4 µM
Clc1ccc(Nc2ccc(NCc3ccccc3)nn2)cc1	21.3 µM
CCOC(=O)Cn1nnnc1C(C(C)C)N(Cc1cccs1)Cc1cc2cc(C)ccc2[nH]c1=O (centres undefined)	10.5 µM
COc1ccc(C(=O)Oc2c(CN3CCOCC3)cc(Cl)c3cccnc23)cc1	6.67 µM
CCc1ccc(CNc2ccc(O)cc2)cc1	17.1 µM
CCN1/C(=C/C=C/c2sc3ccccc3[n+]2CC)Sc2ccccc21	0.43 µM
O=C(c1cccs1)c1no[n+]([O-])c1C(=O)c1cccs1	2.61 µM
C/C(=N\Nc1ncnc2sc(C)c(C)c12)c1ccccn1	< 0.1 µM
O=C(C[n+]1cccc(CNC(=O)c2ccc(OC(F)F)cc2)c1)Nc1ccc(SC(F)F)cc1	11.7 µM
Cc1ccccc1OCCSCc1nc2ccccc2[nH]1	30.4 µM
COc1ccc(OCCSc2nnc3sc4ccccc4n23)cc1	44.1 µM
CN1CCN(CCCN2c3ccccc3Sc3ccc(Cl)cc32)CC1	14.1 µM
C=CCc1ccccc1OCC(O)CN1CCN(CCN2C(=O)c3cccc4cccc(c34)C2=O)CC1 (centres undefined)	16.8 µM
O=Nc1ccc(O)c2ncccc12	1.77 µM
Cc1cc(-c2csc(N)n2)c(C)n1-c1ccccc1	16.9 µM
COC12C(COC(N)=O)C3=C(C(=O)C(C)=C(N)C3=O)N1CC1C2N1C (centres undefined)	9.05 µM
C#CCOCCOCCOCCNc1nc(N2CCN(C(=O)CCCCCCCCCCNC(=O)[C@H](CCCCN)n3cc(C[C@@H](C)CC)nn3)CC2)nc(N2CCN(C(=O)CCCCCCCCCCNC(=O)[C@H](CCCN=C(N)N)n3cc(C[C@@H](C)CC)nn3)CC2)n1	3.88 µM
CCOC(=O)COc1ccccc1/C=C\[N+](=O)[O-]	2.85 µM
C/C(=N\N=C(N)N)c1ccc(Cl)c(Cl)c1	11.2 µM
Oc1[nH]c(=S)sc1/C=C1\C(c2ccccc2)=Nc2ccccc21	26 µM
CC(C)(C)c1nn(-c2ccccc2)c2[nH]c(=O)c(CNCc3ccco3)cc12	49.6 µM

Structure (SMILES)	EC50
CO[C@H]1C=CO[C@@]2(C)Oc3c(C)c(O)c4c(O)c(c(C=NN5CCN(C)CC5)c(O)c4c3C2=O)NC(=O)C(C)=CC=C[C@H](C)[C@H](O)[C@@H](C)[C@@H](O)[C@@H](C)[C@H](OC(C)=O)[C@@H]1C	33 µM
O=c1[nH][nH]c(-c2ccccc2O)c1C(C[N+](=O)[O-])c1ccc(Br)cc1 (centres undefined)	16 µM
COc1ccc(C(=O)Cn2nc(CNc3ccc(Br)cc3)[n+]3c2CCCCC3)cc1	7.74 µM
Nc1c(C(=O)NCCc2ccc(Cl)cc2)sc2ccc(S(=O)(=O)N3CCCCC3)cc12	31.5 µM
O=C(O)C1Nc2c(O)cccc2C2C=CCC12 (centres undefined)	22.6 µM
Cc1ccc2[nH]c3c(NCc4ccccc4)ncnc3c2c1	17.1 µM
CCOC(=O)N1CCN(S(=O)(=O)c2ccc(C(=O)NNc3nc4c(C)cc(C)cc4s3)cc2)CC1	3.28 µM
CCOc1ccc(Nc2nc(N)c3ccccc3n2)cc1	7.05 µM
Cc1ccc(S(=O)(=O)/N=C2/C=C(Sc3ncn[nH]3)C(=O)c3ccccc32)c(C)c1	5.51 µM
Cc1ccsc1C=Nc1ccc(O)cc1	25.9 µM
Cc1ccc(C[n+]2cc(-c3ccc(Cl)cc3)n3c2CCC3)cc1	12 µM
CC[n+]1c(/C=C/C=C/c2ccc(N(C)C)cc2)sc2ccccc21	1.5 µM
Cc1nn(-c2ccccc2)c(C)c1/C=N/NC(=O)c1cc(-c2cccc3ccccc23)n[nH]1	17.4 µM
COc1ccc(C)cc1NC(=O)C(Sc1nnc(-c2ccncc2)n1-c1ccc(Cl)cc1)c1ccccc1 (centres undefined)	22 µM
O=C(CSCc1ccccc1)N/N=C/c1ccccc1OCc1ccccc1	46.6 µM
CC1(C)SC(=S)N(NC(=O)Nc2ccccc2)C1N(O)C(=O)Nc1ccccc1 (centres undefined)	37.8 µM
CC(C)NCCCOc1ccc(Cl)cc1Br	44.7 µM
CCCCOc1ccc(Cc2cnc(N)nc2N)cc1	41.5 µM
NC1=NC[C@H](Cc2ccc(O)cc2)N1CCC12CC3CC(CC(C3)C1)C2	10.6 µM
COc1ccc(Nc2sc(C(=O)Nc3cccc(Cl)c3)c(N)c2C(=O)Nc2ccccc2OC)cc1	25.7 µM
C=CS(=O)(=O)c1ccc(Oc2ccc(S(=O)(=O)C=C)cc2)cc1	1.4 µM
Cc1cc(-c2nnc(-c3ccccc3)c(-c3ccccc3)n2)c(C)o1	40.3 µM
CCCCCCC(=O)N(O)C1CC(=O)N(c2ccc(C)cc2)C1=O (centres undefined)	30.6 µM
O=C1c2ccccc2-c2onc3ccc(NCc4ccco4)c1c23	17.9 µM
NC(=NCCCCCCN=C(N)/N=C(\N)Nc1ccc(Cl)cc1)/N=C(\N)Nc1ccc(Cl)cc1	3.09 µM and 3.04 µM and 2.9 µM
O=C1C2=C(NC(=S)NC2c2ccc(Cl)cc2)NC(c2ccc(Cl)cc2)N1c1ccc(Cl)cc1 (centres undefined)	11.3 µM
O=C(NCc1ccco1)c1cccc(Nc2nc3ccc(Br)cc3[nH]2)c1	44.6 µM
